These compounds were tested against N-type calcium channel subunits (α1B, α2δ, and β3a) (Homo sapiens, UniProt Q00975) (assay: Block of Cav2.2 channel, whole cell voltage clamp, manual and PatchXpress). Conditions: Table 5; table follows Assay Example 3 (whole cell voltage clamp / PatchXpress); assay not given.
Format: cell-based
In short: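 Percent block taken as current amplitude ratio with versus without compound, applied in rising doses; IC50 fitted where one cell received multiple doses. Protocol: 50 ms pulses to +20 mV at 0.067 Hz from […] or −90 mV holding; P/n leak subtraction, no junction-potential correction; manual and PatchXpress recordings.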

Sequence of N-type calcium channel subunits (α1B, α2δ, and β3a) (Q00975 whole entry): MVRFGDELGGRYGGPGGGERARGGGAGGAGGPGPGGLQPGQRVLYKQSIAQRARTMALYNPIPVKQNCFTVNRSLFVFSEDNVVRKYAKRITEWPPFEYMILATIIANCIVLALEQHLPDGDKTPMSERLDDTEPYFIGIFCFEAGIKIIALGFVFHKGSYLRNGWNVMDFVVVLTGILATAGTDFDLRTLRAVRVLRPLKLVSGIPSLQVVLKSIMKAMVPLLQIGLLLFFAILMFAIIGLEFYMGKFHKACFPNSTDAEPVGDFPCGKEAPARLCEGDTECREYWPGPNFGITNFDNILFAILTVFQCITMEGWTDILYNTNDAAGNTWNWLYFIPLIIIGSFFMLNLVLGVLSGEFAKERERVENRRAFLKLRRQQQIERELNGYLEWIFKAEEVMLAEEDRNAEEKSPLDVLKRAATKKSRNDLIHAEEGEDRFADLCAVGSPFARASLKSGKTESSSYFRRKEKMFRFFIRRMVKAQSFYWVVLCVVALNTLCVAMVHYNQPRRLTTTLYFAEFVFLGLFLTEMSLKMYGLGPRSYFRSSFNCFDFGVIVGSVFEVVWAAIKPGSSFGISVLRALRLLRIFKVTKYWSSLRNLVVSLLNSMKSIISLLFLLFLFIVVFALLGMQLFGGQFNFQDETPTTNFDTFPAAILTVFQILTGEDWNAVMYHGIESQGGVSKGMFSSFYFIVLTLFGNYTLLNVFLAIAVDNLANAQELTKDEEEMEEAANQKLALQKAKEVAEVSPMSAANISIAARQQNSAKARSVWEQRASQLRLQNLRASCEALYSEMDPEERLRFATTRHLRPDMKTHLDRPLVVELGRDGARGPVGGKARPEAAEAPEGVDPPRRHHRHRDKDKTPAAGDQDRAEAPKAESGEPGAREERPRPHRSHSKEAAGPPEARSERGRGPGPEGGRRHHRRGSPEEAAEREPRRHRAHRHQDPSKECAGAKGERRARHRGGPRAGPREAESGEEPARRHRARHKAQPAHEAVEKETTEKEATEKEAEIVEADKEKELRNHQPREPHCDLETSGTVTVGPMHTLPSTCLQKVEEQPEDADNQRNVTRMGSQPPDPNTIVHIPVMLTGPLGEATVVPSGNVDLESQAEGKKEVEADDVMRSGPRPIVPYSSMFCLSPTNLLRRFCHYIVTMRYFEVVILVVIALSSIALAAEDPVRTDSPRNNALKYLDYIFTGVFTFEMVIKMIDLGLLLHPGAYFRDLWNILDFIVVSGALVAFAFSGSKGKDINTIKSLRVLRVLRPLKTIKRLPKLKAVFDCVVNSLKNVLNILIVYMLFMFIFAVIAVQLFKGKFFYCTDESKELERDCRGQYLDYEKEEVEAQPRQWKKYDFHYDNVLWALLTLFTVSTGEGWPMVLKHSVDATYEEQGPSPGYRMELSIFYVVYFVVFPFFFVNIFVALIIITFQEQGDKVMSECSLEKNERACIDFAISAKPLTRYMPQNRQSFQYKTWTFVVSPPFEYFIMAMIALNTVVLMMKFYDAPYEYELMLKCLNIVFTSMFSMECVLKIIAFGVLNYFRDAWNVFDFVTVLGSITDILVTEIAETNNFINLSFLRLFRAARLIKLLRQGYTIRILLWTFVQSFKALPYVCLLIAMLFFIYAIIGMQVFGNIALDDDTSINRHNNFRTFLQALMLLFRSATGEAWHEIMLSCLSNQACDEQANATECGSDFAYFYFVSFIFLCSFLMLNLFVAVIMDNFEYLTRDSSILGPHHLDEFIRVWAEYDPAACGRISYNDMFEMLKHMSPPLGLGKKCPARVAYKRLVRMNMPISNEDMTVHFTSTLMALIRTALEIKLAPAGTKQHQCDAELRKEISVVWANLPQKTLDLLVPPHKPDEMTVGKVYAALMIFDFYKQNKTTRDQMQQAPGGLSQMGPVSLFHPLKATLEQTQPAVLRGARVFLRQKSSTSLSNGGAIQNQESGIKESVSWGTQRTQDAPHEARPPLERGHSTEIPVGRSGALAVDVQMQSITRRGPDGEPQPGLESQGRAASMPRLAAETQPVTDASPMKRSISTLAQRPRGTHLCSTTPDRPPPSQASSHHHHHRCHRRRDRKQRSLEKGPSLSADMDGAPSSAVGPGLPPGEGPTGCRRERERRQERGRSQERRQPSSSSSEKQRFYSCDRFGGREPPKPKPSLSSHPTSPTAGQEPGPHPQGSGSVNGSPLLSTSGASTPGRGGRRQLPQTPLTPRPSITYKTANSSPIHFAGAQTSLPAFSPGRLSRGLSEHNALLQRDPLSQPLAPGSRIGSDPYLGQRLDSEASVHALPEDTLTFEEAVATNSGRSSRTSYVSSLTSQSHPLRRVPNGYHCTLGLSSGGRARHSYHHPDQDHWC
Sequence of N-type calcium channel subunits (α1B, α2δ, and β3a) (P54289 25-1103 partner): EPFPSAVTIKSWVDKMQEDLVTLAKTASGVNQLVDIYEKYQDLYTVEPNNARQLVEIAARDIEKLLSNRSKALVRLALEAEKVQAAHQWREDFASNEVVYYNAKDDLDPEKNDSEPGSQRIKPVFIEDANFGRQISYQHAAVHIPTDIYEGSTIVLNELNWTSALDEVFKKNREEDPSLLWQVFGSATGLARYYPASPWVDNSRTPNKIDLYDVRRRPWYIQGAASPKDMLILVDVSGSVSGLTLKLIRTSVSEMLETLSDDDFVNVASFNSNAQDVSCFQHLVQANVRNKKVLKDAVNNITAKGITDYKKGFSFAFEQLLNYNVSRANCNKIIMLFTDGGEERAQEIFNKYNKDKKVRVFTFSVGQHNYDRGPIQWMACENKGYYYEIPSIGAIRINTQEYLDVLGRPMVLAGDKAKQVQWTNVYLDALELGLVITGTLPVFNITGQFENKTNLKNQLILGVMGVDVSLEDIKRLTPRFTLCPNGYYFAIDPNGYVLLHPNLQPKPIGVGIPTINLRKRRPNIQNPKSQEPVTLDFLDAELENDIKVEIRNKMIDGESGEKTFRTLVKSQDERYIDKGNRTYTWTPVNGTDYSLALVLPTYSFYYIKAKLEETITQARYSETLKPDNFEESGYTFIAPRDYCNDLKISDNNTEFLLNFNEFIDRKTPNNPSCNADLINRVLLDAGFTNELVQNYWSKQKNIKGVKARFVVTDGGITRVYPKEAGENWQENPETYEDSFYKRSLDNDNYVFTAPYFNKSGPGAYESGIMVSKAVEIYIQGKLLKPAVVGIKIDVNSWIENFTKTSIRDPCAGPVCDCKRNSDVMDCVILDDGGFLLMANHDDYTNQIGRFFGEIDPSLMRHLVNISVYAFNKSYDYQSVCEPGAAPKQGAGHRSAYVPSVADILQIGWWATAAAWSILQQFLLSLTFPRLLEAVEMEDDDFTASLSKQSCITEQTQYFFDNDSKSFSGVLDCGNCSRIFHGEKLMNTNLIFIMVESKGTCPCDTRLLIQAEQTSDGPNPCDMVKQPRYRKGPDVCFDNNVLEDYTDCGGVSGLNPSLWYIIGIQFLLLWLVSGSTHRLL
Sequence of N-type calcium channel subunits (α1B, α2δ, and β3a) (P54284 whole entry partner): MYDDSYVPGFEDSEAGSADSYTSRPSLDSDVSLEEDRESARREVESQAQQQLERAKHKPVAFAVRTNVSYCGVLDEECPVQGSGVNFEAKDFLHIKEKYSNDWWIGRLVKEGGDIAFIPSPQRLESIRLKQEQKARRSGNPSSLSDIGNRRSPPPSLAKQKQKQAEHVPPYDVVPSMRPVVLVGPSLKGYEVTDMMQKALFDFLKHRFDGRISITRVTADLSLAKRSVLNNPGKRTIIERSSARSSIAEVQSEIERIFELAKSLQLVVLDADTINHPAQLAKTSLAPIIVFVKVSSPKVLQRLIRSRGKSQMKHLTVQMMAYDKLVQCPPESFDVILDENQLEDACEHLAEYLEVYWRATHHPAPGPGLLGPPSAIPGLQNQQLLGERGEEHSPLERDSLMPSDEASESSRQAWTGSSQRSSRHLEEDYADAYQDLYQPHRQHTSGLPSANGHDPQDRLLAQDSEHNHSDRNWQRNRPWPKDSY

Going from `COc1cc(C(=O)NC[C@]2(O)CC[C@@H](S(=O)(=O)c3cccc(C(F)(F)F)c3)CC2)cc(Cl)n1` [Compound 236, 2-chloro-N-(((1S,4S)-1-hydroxy-4-(3-(trifluoromethyl)phenylsulfonyl)cyclohexyl)methyl)-6-methoxyisonicotinamide] to `O=C(NC[C@]1(O)CC[C@@H](S(=O)(=O)c2cccc(C(F)(F)F)c2)CC1)c1cc(C(F)(F)F)ccn1` [Compound 237, N-(((1S,4S)-1-hydroxy-4-(3-(trifluoromethyl)phenylsulfonyl)cyclohexyl)methyl)-4-(trifluoromethyl)picolinamide], the IC50 rises from 2100 nM to 4560 nM (2.2-fold).

Going from `O=C(N[C@H]1CC[C@@](F)(S(=O)(=O)c2cccc(C(F)(F)F)c2)CC1)c1ccc(O)c(C(F)(F)F)c1` [Compound 247, N-((1S,4S)-4-fluoro-4-(3-(trifluoromethyl)phenylsulfonyl)cyclohexyl)-4-hydroxy-3-(trifluoromethyl)benzamide] to `CC(C)([C@H]1C[C@H](NC(=O)c2ccc(F)c(C(F)(F)F)c2)C1)S(=O)(=O)c1cccc(C(F)(F)F)c1` [Compound 440, 4-fluoro-3-(trifluoromethyl)-N-((1R,3R)-3-(2-(3-(trifluoromethyl)phenylsulfonyl)propan-2-yl)cyclobutyl)benzamide], the IC50 falls from 1010 nM to 80 nM (13-fold). The second is the more potent here.

First: O=C1c2ccc(C(F)(F)F)cc2C(=O)N1C1CCC(F)(S(=O)(=O)c2cccc(C(F)(F)F)c2)CC1 [Compound 280, 2-((1S,4S)-4-fluoro-4-(3-(trifluoromethyl)phenylsulfonyl)cyclohexyl)-5-(trifluoromethyl)isoindoline-1,3-dione]
Second: O=S(=O)(c1cccc(C(F)(F)F)c1)[C@H]1C[C@H](c2c[nH]c(-c3ccc(C(F)(F)F)cc3)n2)C1 [Compound 443, 2-(4-(trifluoromethyl)phenyl)-4-((1R,3R)-3-(3-(trifluoromethyl)phenylsulfonyI)cyclobutyl)-1H-imidazole]
The IC50 of the first is higher: greater than 10000 nM for the first, 440 nM for the second. The second is the more potent here.

First: O=C(N[C@H]1CC[C@@](F)(S(=O)(=O)c2cccc(C(F)(F)F)c2)CC1)C1CCCCN1 (stereo partly drawn) [Compound 283, N-((1S,4S)-4-fluoro-4-(3-(trifluorornethyl)phenylsulfonyl)cyclohexyl) piperidine-2-carboxamide]
Second: N[C@@H]1CCCC[C@H]1C(=O)N[C@H]1CC[C@@](F)(S(=O)(=O)c2cccc(C(F)(F)F)c2)CC1 [Compound 284, (1R,2R)-2-amino-N-((1S,4S)-4-fluoro-4-(3-(trifluoromethyl)phenylsulfonyl)cyclohexyl) cyclohexanecarboxamide]
The IC50 of the first is 1.8-fold lower: 580 nM for the first, 1050 nM for the second.

Going from `CC1(NC(=O)c2ccnn2CC(F)(F)F)CCC(S(=O)(=O)c2cccc(C(F)(F)F)c2)CC1` (stereo not shown) [Compound 314, N-(1-methyl-4-(3-(trifluoromethyl)phenylsulfonyl)cyclohexyl)-1-(2,2,2-trifluoroethyl)-1Hpyrazole-5-carboxamide] to `O=C(NC[C@H]1C[C@H](S(=O)(=O)c2cccc(C(F)(F)F)c2)C1)c1ccc(OCC(F)(F)F)nc1` [Compound 376, 6-(2,2,2-trifluoroethoxy)-N-(((1R,3R)-3-(3-(trifluoromethyl)phenylsulfonyl)cyclobutyl)methyl)nicotinamide], the IC50 falls from 4920 nM to 540 nM (9.1-fold). The second is the more potent here.

Compared with `COc1cc(F)cc(C(=O)NC[C@H]2C[C@H](S(=O)(=O)c3cccc(C(F)(F)F)c3)C2)c1` [Compound 375, 3-fluoro-5-methoxy-N-(((1R,3R)-3-(3-(trifluoromethyl)phenylsulfonyl)cyclobutyl)methyl)benzamide], `O=C(NC[C@H]1C[C@H](S(=O)(=O)c2cc(F)cc(C(F)(F)F)c2)C1)c1ccc(F)c(Cl)c1` [Compound 391, 3-chloro-4-fluoro-N-(((1R,3R)-3-(3-fluoro-5-(trifluoromethyl)phenylsulfonyl)cyclobutyl)rnethyl)benzamide] is 2.8-fold higher in IC50: 260 nM for the first, 730 nM for the second.

Compared with `O=C(NC[C@H]1C[C@H](S(=O)(=O)c2cc(F)cc(C(F)(F)F)c2)C1)c1ccc(C(F)(F)F)cn1` [Compound 390, N-(((1R,3R)-3-(3-fluoro-5-(trifluoromethyl)phenylsulfonyl)cyclobutyl)methyl)-5-(trifluoromethyl) picolinamide], `O=C(NC[C@H]1C[C@H](S(=O)(=O)c2cc(F)cc(C(F)(F)F)c2)C1)c1cc(C(F)(F)F)ccn1` [Compound 397, N-(((1R,3R)-3-(3-fluoro-5-(trifluoromethyl)phenylsulfonyl)cyclobutyl)methyl)-4-(trifluoromethyl)picolinamide] is 1.8-fold lower in IC50: 1630 nM for the first, 910 nM for the second. The second is the more potent here.

`O=C(NC[C@H]1C[C@H](S(=O)(=O)c2cc(F)cc(C(F)(F)F)c2)C1)c1cn2cc(C(F)(F)F)ccc2n1` [Compound 393, N-(((1R,3R)-3-(3-fluoro-5-(trifluoromethyl)phenylsulfonyl)cyclobutyl)methyl)-6-(trifluoromethyl) imidazo[1,2-a]pyridine-2-carboxamide] and `O=C(NC[C@H]1C[C@H](S(=O)(=O)c2cc(F)cc(C(F)(F)F)c2)C1)c1ccc(OC(F)(F)F)cc1` [Compound 398, N-(((1R,3R)-3-(3-fluoro-5-(trifluoromethyl)phenylsulfonyl)cyclobutyl)methyl)-4-(trifluoromethoxy)benzamide] are within 1.5-fold of each other in IC50: 1070 nM for the first, 740 nM for the second.

`O=C(NC[C@H]1C[C@H](S(=O)(=O)c2cc(F)cc(C(F)(F)F)c2)C1)c1ccc(Cl)c(OC(F)(F)F)c1` [Compound 394, 4-chloro-N-(((1R,3R)-3-(3-fluoro-5-(trifluoromethyl)phenylsulfonyl)cyclobutyl)methyl)-3-(trifluoromethoxy)benzamide] and `O=C(NC[C@H]1C[C@H](S(=O)(=O)c2cc(F)cc(C(F)(F)F)c2)C1)c1ccc(Cl)c(Cl)c1` [Compound 395, 3,4-dichloro-N-(((1R,3R)-3-(3-fluoro-5-(trifluoromethyl)phenylsulfonyl)cyclobutyl)methyl)benzamide] are within 1.5-fold of each other in IC50: 510 nM for the first, 750 nM for the second.

`O=C(Nc1ccc(Oc2ccc(F)cc2)cc1)[C@H]1C[C@H](S(=O)(=O)c2cccc(C(F)(F)F)c2)C1` [Compound 406, (1R,3R)-N-(4-(4-fluorophenoxy)phenyl)-3-(3-(trifluoromethyl)phenylsulfonyl)cyclobutane carboxamide] and `O=C(Nc1ncccc1C(F)(F)F)[C@H]1C[C@@H](S(=O)(=O)c2cccc(C(F)(F)F)c2)C1` [Compound 414, (1S,3S)-3-(3-(trifluoromethyl)phenylsulfonyl)-N-(3-(trifluoromethyl)pyridin-2-yl)cyclobutanecarboxamide] are within 1.5-fold of each other in IC50: 1540 nM for the first, 1360 nM for the second.

First: Cc1nn(C)c(C)c1S(=O)(=O)NC[C@H]1C[C@H](S(=O)(=O)c2cccc(C(F)(F)F)c2)C1 [Compound 421, 1,3,5-trimethyl-N-(((1R,3R)-3-(3-(trifluoromethyl)phenylsulfonyl)cyclobutyl)methyl)-1H-pyrazole-4-sulfonamide]
Second: CC(C)(C)c1nc([C@H]2C[C@@H](S(=O)(=O)c3cccc(C(F)(F)F)c3)C2)c[nH]1 [Compound 447, 2-tert-butyl-4-((1S,3S)-3-(3-(trifluoromethyl)phenylsulfonyl)cyclobutyl)-1H-imidazole]
The IC50 of the first is 3-fold higher: 5580 nM for the first, 1830 nM for the second.

Going from `O=C(N[C@H]1C[C@@H](S(=O)(=O)c2cccc(C(F)(F)F)c2)C1)c1ccc(C(F)(F)F)nc1` [Compound 430, 6-(trifluoromethyl)-N-((1S,3S)-3-(3-(triffuoromethyl)phenylsulfonyl)cyclobutyl) nicotinamide] to `O=S(=O)(c1cccc(C(F)(F)F)c1)[C@H]1C[C@H](c2c[nH]c(-c3ccc(C(F)(F)F)nc3)n2)C1` [Compound 445, 2-(trifluoromethyl)-5-(4-((1R,3R)-3-(3-(trifluoromethyl)phenylsulfonyl)cyclobutyl)-1H-imidazol-2-yl)pyridine], the IC50 falls from greater than 10000 nM to 200 nM. The second is the more potent here.

Compared with `CC([C@H]1C[C@H](NC(=O)c2ncc(C(F)(F)F)cc2S(C)(=O)=O)C1)S(=O)(=O)c1cccc(C(F)(F)F)c1` (stereo partly drawn) [Compound 435, 3-(methylsulfonyl)-5-(trifluoromethyl)-N-((1R,3R)-3-((R)-1-(3-(trifluoromethyl)phenylsulfonyl)ethyl)cyclobutyl) picolinamide], `CC(C)([C@H]1C[C@H](NC(=O)c2ncc(C(F)(F)F)cc2S(C)(=O)=O)C1)S(=O)(=O)c1cccc(C(F)(F)F)c1` [Compound 436, 3-(methylsulfonyl)-5-(trifluoromethyl)-N-((1R,3R)-3-(2-(3-(trifluoromethyl)phenylsulfonyl)propan-2-yl)cyclobutyl)picolinamide] is 2.3-fold lower in IC50: 1470 nM for the first, 630 nM for the second. The second is the more potent here.

Going from `CC(C)([C@H]1C[C@H](NC(=O)c2cnc(C(F)(F)F)nc2)C1)S(=O)(=O)c1cccc(C(F)(F)F)c1` [Compound 437, 2-(trifluoromethyl)-N-((1R,3R)-3-(2-(3-(trifluoromethyl)phenylsulfonyl)propan-2-yl)cyclobutyl)pyrimidine-5-carboxamide] to `CC(C)([C@H]1C[C@H](NC(=O)c2ccc(F)c(Cl)c2)C1)S(=O)(=O)c1cccc(C(F)(F)F)c1` [Compound 441, 3-chloro-4-fluoro-N-((1R,3R)-3-(2-(3-(trifluoromethyl)phenylsulfonyl)propan-2-yl)cyclobutyl)benzamide], the IC50 falls from 720 nM to 80 nM (9-fold). The second is the more potent here.

Compared with `CC(C)([C@H]1C[C@H](NC(=O)c2ccc(C(F)(F)F)cc2S(C)(=O)=O)C1)S(=O)(=O)c1cccc(C(F)(F)F)c1` [Compound 439, 2-(methylsulfonyl)-4-(trifluoromethyl)-N-((1R,3R)-3-(2-(3-(tritluoromethyl)phenylsulfonyl)propan-2-yl)cyclobutyl)benzamide], `O=S(=O)(c1cccc(C(F)(F)F)c1)[C@H]1C[C@@H](c2c[nH]c(-c3ccc(C(F)(F)F)nc3)n2)C1` [Compound 446, 2-(trifluoromethyl)-5-(4-((1S,3S)-3-(3-(trifluoromethyl)phenylsulfonyl)cyclobutyl)-1H-imidazoI-2-yl)pyridine] is 2-fold higher in IC50: 400 nM for the first, 810 nM for the second. The first is the more potent here.

`O=S(=O)(c1cccc(C(F)(F)F)c1)[C@H]1C[C@H](c2c[nH]c(-c3ccc(OC(F)(F)F)cc3)n2)C1` [Compound 444, 2-(4-(trifluoromethoxy)phenyl)-4-((1R,3R)-3-(3-(trifluoromethyl)phenylsulfonyl)cyclobutyl)-1H-imidazole] showed an IC50 of 290 nM.

From patent US20120245137A1 (Zalicus Pharmaceuticals Ltd., priority 2009, published 2012)
